Key:
Assay in all cases: relative viability (nuclei count vs DMSO), 5 days (fraction); higher = more cells survive
Cediranib + Vorinostat = compound: COc1cc2c(Oc3ccc4[nH]c(C)cc4c3F)ncnc2cc1OCCCN1CCCC1 [Cediranib] + O=C(CCCCCCC(=O)Nc1ccccc1)NO [Vorinostat] (partner 1 µM)
In short: (§1)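 One day after seeding in 1536-well plates, lung cancer cell lines were dosed by pin tool. Dosing was either single-drug or a fixed anchor-drug dose plus five library-drug doses (not always all listed) in √10 steps. After 5 days, nuclei were stained in one fix-and-stain step and counted on 4× images, and relative viability is the nuclei count of treated wells over that of vehicle wells, given as the median of duplicate plates.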

[1] = compound: O=C(C[C@H]1NCCC[C@@H]1O)Cn1cnc2cc(Br)c(Cl)cc2c1=O (racemic) [Halofuginone] + CCNC(=O)c1noc(-c2cc(C(C)C)c(O)cc2O)c1-c1ccc(CN2CCOCC2)cc1 [Luminespib] (partner 0.01 µM)
In short: as §1

Cediranib + Linsitinib = compound: COc1cc2c(Oc3ccc4[nH]c(C)cc4c3F)ncnc2cc1OCCCN1CCCC1 [Cediranib] + C[C@]1(O)C[C@@H](c2nc(-c3ccc4ccc(-c5ccccc5)nc4c3)c3c(N)nccn32)C1 [Linsitinib] (partner 1 µM)
In short: as §1

Cediranib + Tozasertib = compound: COc1cc2c(Oc3ccc4[nH]c(C)cc4c3F)ncnc2cc1OCCCN1CCCC1 [Cediranib] + Cc1cc(Nc2cc(N3CCN(C)CC3)nc(Sc3ccc(NC(=O)C4CC4)cc3)n2)n[nH]1 [Tozasertib] (partner 0.1 µM)
In short: as §1

Row | Cell Line | relative viability (Cediranib + Vorinostat; first compound 0.04 µM) | relative viability (Cediranib + Vorinostat; first compound 0.1265 µM) | relative viability (Cediranib + Vorinostat; first compound 0.4 µM) | relative viability (Cediranib + Vorinostat; first compound 1.265 µM) | relative viability (Cediranib + Vorinostat; first compound 4 µM) | relative viability ([1]; first compound 0.001 µM) | relative viability ([1]; first compound 0.003162 µM) | relative viability ([1]; first compound 0.01 µM) | relative viability ([1]; first compound 0.03162 µM) | relative viability ([1]; first compound 0.1 µM) | relative viability (Cediranib + Linsitinib; first compound 0.04 µM) | relative viability (Cediranib + Linsitinib; first compound 0.1265 µM) | relative viability (Cediranib + Linsitinib; first compound 0.4 µM) | relative viability (Cediranib + Linsitinib; first compound 1.265 µM) | relative viability (Cediranib + Linsitinib; first compound 4 µM) | relative viability (Cediranib + Tozasertib; first compound 0.04 µM) | relative viability (Cediranib + Tozasertib; first compound 0.1265 µM) | relative viability (Cediranib + Tozasertib; first compound 0.4 µM) | relative viability (Cediranib + Tozasertib; first compound 1.265 µM) | relative viability (Cediranib + Tozasertib; first compound 4 µM)
1 | LC-2-ad | 0.678 | 0.625 | 0.669 | 0.825 | 0.705 | 1.08 | 1 | 0.848 | 1.01 | 0.326 | 0.871 | 0.831 | 0.842 | 0.771 | 0.806 | 0.496 | 0.373 | 0.456 | 0.507 | 0.371
2 | NCI-H596 | 0.584 | 0.488 | 0.585 | 0.682 | 0.836 | 1.02 | 1.23 | 1.06 | 0.941 | 0.324 | 1.16 | 1.07 | 1.11 | 1.05 | 1.09 | 1.13 | 0.891 | 0.782 |  | 0.986
3 | NCI-H1437 | 0.875 | 0.778 | 0.872 | 0.819 | 0.898 | 1.12 | 1.1 | 1.1 | 1.04 | 0.879 | 1.09 | 0.987 | 0.951 | 1.04 | 1.01 | 0.434 | 0.426 | 0.365 | 0.412 | 0.421
4 | NCI-H727 | 0.934 | 0.913 | 1.08 | 1.21 | 1.27 | 0.258 | 0.327 | 0.435 | 0.389 | 0.355 | 0.293 | 0.267 | 0.33 | 0.372 | 0.279 |  | 0.591 | 0.536 | 0.762 | 0.549
5 | PC-3 [JPC-3] | 0.771 |  | 0.765 | 0.855 | 0.797 | 0.705 | 0.714 | 0.626 | 0.823 | 0.661 | 0.991 | 0.942 | 0.907 | 0.93 | 1.04 | 0.886 | 0.906 | 0.947 | 0.891 | 0.876
6 | SW 1573 | 1.03 | 0.532 | 0.991 | 0.582 | 0.806 | 0.507 | 0.152 | 0.265 | 0.113 | 0.0969 | 0.71 | 0.698 | 0.743 | 0.754 | 0.861 | 0.193 | 0.179 | 0.136 | 0.153 | 0.18
7 | NCI-H2228 | 0.719 | 0.763 | 0.633 | 0.563 | 0.529 | 0.136 | 0.139 | 0.12 | 0.118 | 0.126 | 0.873 | 0.955 | 0.8 | 0.536 | 1.03 | 0.26 | 0.351 | 0.237 | 0.207 | 0.203
8 | NCI-H1650 | 0.629 | 0.546 | 0.599 | 0.548 | 0.679 | 0.188 | 0.217 | 0.193 | 0.204 | 0.235 |  |  |  |  |  | 0.585 | 0.374 | 0.36 | 0.476 | 0.329
